Values of other authors in patent US20220000834A1, “NOVEL ADMINISTRATION METHOD” (SUMITOMO DAINIPPON PHARMA CO., LTD., priority 2019, published 2022).

Assays:
[1] = system: nerves in an injured part; settings: Patent Documents 1 and 2
nerve cells = settings: as low as

## CC(=O)c1cc2c(=O)c3c(C(=O)O)c(O)c(O)cc3oc2c(C(C)=O)c1-c1coc2cc(O)c(O)c(C(=O)O)c2c1=O [compound A]
[1]
  regeneration of nerves in an injured part: accelerates the regeneration of nerves in an injured part

B1: Sema3A: class 3 semaphorin; suppresses growth of neurite growth cone (protein, UniProt Q14563 21-771, looked up)
Semaphorin-3A: NYQNGKNNVPRLKLSYKEMLESNNVITFNGLANSSSYHTFLLDEERSRLYVGAKDHIFSFDLVNIKDFQKIVWPVSYTRRDECKWAGKDILKECANFIKVLKAYNQTHLYACGTGAFHPICTYIEIGHHPEDNIFKLENSHFENGRGKSPYDPKLLTASLLIDGELYSGTAADFMGRDFAIFRTLGHHHPIRTEQHDSRWLNDPKFISAHLISESDNPEDDKVYFFFRENAIDGEHSGKATHARIGQICKNDFGGHRSLVNKWTTFLKARLICSVPGPNGIDTHFDELQDVFLMNFKDPKNPVVYGVFTTSSNIFKGSAVCMYSMSDVRRVFLGPYAHRDGPNYQWVPYQGRVPYPRPGTCPSKTFGGFDSTKDLPDDVITFARSHPAMYNPVFPMNNRPIVIKTDVNYQFTQIVVDRVDAEDGQYDVMFIGTDVGTVLKVVSIPKETWYDLEEVLLEEMTVFREPTAISAMELSTKQQQLYIGSTAGVAQLPLHRCDIYGKACAECCLARDPYCAWDGSACSRYFPTAKRRTRRQDIRNGDPLTHCSDLHHDNHHGHSPEERIIYGVENSSTFLECSPKSQRALVYWQFQRRNEERKEEIRVDDHIIRTDQGLLLRSLQQKDSGNYLCHAVEHGFIQTLLKVTLEVIDTEHLEELLHKDDDGDGSKTKEMSNSMTPSQKVWYRDFMQLINHPNLNTMDEFCEQVWKRDRKQRRQRPGHTPGNSNKWKHLQENKKGRNRRTHEFERAPRSV
Nerve cells
  concentration inducing regression of nerve cells: 10 pM
